We go through two molecules from patent US20030215462A1, “Use of UGT inhibitors to increase bioavailability” (priority 2001, published 2003).

The target in assay [1] is T1, UGT1A1 (Homo sapiens, UniProt P22309).
T1 sequence (P22309 26-533): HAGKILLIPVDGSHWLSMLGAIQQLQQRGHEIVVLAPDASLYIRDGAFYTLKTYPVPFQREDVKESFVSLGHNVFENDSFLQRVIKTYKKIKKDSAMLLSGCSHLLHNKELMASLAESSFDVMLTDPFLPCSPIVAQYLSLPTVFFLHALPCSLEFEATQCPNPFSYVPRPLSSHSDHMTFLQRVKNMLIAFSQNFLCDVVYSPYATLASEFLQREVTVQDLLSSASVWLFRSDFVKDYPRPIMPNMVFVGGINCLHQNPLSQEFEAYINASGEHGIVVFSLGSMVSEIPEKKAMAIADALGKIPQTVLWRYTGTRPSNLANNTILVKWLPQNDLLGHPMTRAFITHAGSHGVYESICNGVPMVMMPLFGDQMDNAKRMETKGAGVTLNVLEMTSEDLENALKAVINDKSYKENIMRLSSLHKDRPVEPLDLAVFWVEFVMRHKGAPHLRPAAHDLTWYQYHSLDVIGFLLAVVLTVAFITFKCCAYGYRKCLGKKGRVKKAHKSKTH
Description: Inhibition of raloxifene glucuronidation by recombinant UGT1A1 Supersomes. As to conditions: UGT1A1.
Description: (§2) Compounds were eluted using a binary solvent gradient system. Solvent A was water brought to pH 8 with NH4OH. Solvent B was methanol. Solvent flow rate was 1 ml/min and the column temperature was maintained at 50° C. Detection was at 280 nm. […] The system was then returned to the initial conditions and equilibrated for 3 min.

Assay [2] addresses T2, UGT1A3 (Homo sapiens, UniProt P35503).
T2 sequence (P35503 29-534): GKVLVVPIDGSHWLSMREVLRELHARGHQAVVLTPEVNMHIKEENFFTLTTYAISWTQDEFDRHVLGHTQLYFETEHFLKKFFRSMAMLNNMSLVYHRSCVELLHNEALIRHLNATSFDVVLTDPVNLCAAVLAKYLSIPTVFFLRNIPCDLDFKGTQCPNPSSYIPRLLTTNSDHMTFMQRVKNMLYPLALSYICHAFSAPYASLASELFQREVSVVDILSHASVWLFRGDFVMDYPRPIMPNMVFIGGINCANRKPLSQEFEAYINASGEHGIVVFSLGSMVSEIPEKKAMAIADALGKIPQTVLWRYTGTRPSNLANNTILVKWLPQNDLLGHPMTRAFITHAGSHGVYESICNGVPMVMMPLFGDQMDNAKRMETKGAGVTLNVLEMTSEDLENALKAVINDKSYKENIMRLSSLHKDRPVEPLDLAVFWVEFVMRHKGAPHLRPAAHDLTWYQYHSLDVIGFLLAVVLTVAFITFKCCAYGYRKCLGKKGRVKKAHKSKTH
Description: Inhibition of raloxifene glucuronidation by recombinant UGT1A3 Supersomes. As to conditions: UGT1A3.
Description: as §2

Assay [3] concerns UGT enzymes of pooled human jejunum microsomes. Description: Inhibition of raloxifene glucuronidation (G1, G2) in pooled human jejunum microsomes. As to conditions: jejunum HJ61; inhibitor 50 μM. The class given is biochemical. How it is done:
Compounds were eluted using a binary solvent gradient system. […] Solvent B was methanol. […] Detection was at 280 nm.
Standardized incubations utilized […] microsomal protein, 1 mM UDPGA and a 30 min incubation time.

Assay [4] deals with T3, UGT enzymes of human liver microsomes.
T3 construct: percentage of control metabolism, 7-HFC glucuronidation; percentage of control metabolism, 7-HFC glucuronidation
Description: Inhibition of 7-HFC glucuronidation in human liver microsomes. It counts as biochemical. The settings on record: for % of control metabolism (SD, n = 3), 7-HFC glucuronidation: 7-HFC 50 μM, human liver microsomes 100 μg/ml, 15 min.

In assay [5] the test system is T4, UGT enzymes of human liver microsomes.
T4 construct: residual metabolism (% of control), E2-17-β-D-glucuronide; other: liver 032101; residual metabolism (% of control), E2-17-β-D-glucuronide
Description: Inhibition of estradiol (E2) glucuronidation in human liver microsomes. The class given is biochemical. The settings on record: liver 032101, E2 50 μM. An excerpt: (§1) Compounds were eluted using a binary solvent gradient system where solvent A was dilute phosphoric acid (pH 3) and solvent B was 80:20 acetonitrile-methanol. […] Detection was at 280 nm.

Assay [6] has as its target T5, UGT1A10 (Homo sapiens, UniProt Q9HAW8).
T5 sequence (Q9HAW8 26-530): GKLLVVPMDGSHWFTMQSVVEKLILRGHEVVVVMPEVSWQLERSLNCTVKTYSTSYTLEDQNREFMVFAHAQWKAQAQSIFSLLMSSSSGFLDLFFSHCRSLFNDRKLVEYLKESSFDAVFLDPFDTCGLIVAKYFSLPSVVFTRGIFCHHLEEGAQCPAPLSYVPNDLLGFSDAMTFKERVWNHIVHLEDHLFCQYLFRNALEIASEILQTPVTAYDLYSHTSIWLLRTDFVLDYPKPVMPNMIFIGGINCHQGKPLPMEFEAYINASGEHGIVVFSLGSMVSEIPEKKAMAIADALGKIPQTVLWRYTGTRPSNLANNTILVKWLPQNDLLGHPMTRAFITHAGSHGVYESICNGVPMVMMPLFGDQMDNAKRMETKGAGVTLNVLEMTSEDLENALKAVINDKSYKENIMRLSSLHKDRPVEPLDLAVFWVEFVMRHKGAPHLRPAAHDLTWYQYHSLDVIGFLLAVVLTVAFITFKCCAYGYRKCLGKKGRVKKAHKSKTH
In words: Inhibition of raloxifene glucuronidation by recombinant UGT1A10 Bacculosomes. The settings on record: UGT1A10.
Description: as §2

The subject of assay [7] is T6, UGT enzymes of human liver microsomes.
T6 construct: residual metabolism (% of control), E2-3-β-D-glucuronide; other: liver 032101; residual metabolism (% of control), E2-3-β-D-glucuronide
Description: Inhibition of estradiol (E2) glucuronidation in human liver microsomes. It counts as biochemical. As to conditions: liver 032101; E2 50 μM; inhibitor 100 μM.
From the text: as §1
For orientation: Liver microsomes are vesicles of endoplasmic reticulum, rich in cytochrome P450 enzymes.

Assay [8] concerns UGT enzymes of human liver microsomes. The assay is described as above. The settings on record: liver 062101; E2 50 μM; inhibitor 100 μM. The class given is biochemical.
From the text: as §1

In assay [9] the test system is UGT enzymes of pooled human jejunum microsomes. Description: Inhibition of estradiol (E2) glucuronidation in pooled human jejunum microsomes. It counts as biochemical. As to conditions: jejunum HJ61; E2 50 μM; inhibitor 100 μM.
From the text: as §1

Several values for one entry are separate records, joined by “and”; a condition that tells them apart may be missing. Equal values may be shown once.

With `C=CCc1ccc(O)c(OC)c1` [Eugenol], the “inhibition of raloxifene glucuronidation, in words” value in assay [1], in assay [2] and in [6] was “ineffective” throughout. Further, the “% of control metabolism, raloxifene G1” value in [3] is given as 91 (1) %. Besides, in [3], the “% of control metabolism, raloxifene G2” value is 96 (5) %. Moreover, the “% of control metabolism (SD, n = 3), 7-HFC glucuronidation” value in assay [4] (inhibitor 500 μM) is on record as 63 (1) %. Also, the “residual metabolism (% of control), E2-17-β-D-glucuronide” value in [5] (inhibitor 50 μM) was “obs, 94 (5) %”; in assay [5] (inhibitor 100 μM), “obs, 89 (6) %”.

As for `O=C(O)c1cc(-c2ccc(F)cc2F)ccc1O` [Diflunisal, reference compound], the “% of control metabolism, raloxifene G1” value in [3] is 69 (3) %. Besides, the “% of control metabolism, raloxifene G2” value in assay [3] is 93 (6) %. In addition, the “percentage of control metabolism, 7-HFC glucuronidation” value in assay [4] (inhibitor 100 μM) was 77 (2) %; in assay [4] (inhibitor 200 μM) it was 65 (3) %; in assay [4] (inhibitor 500 μM), 37 (1) % and 38 (0) %. Further, the “% of control metabolism (SD, n = 3), 7-HFC glucuronidation” value in [4] (inhibitor 100 μM) is 77 (2) %; in [4] (inhibitor 200 μM), 65 (3) %; in assay [4] (inhibitor 500 μM) it was 37 (1), % and 38 (0) %. Moreover, the “residual metabolism (% of control), E2-3-β-D-glucuronide” value in assay [7] is given as 49 (1), obs %; in assay [8], 59 (2), obs %; in [9], 62 (3), obs %.
